Measured values taken from the supplement of paper PMC4862054.

Columns and labels:
Assay in all cases: normalised viability (% of control), CellTiter-Blue; higher = more viable cells (about 100 = DMSO control)
Conditions in all cases: incubation time: 72 h
CAL-51 [1] = system: CAL-51
Experimental: (§1)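 DSRT, CellTiter-Blue viability, 72 h incubation. Signal is normalised to DMSO and benzethonium chloride controls. Value is the normalised response at dose 6.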

HDQ-P1 [2] = system: HDQ-P1
Experimental: as §1

MDA-MB-453 [3] = system: MDA-MB-453
Experimental: as §1

DU-4475 [4] = system: DU-4475
Experimental: as §1

CAL-85-1 [5] = system: CAL-85-1
Experimental: as §1

CAL-148 [6] = system: CAL-148
Experimental: as §1

SK-BR-3 [7] = system: SK-BR-3
Procedure, shortened: (§2)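 Each entry is normalised viability at a single listed concentration within a series. It comes from breast cancer cell lines incubated 72 h with compound in 384-well plates, then measured with CellTiter-Blue fluorescence at 560/590 nm. Every plate was normalised between vehicle (100) and a positive kill control (0).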

CAL-51 [8] = system: CAL-51; remark: listed apart in the source
Procedure, shortened: as §2

MDA-MB-436 = system: MDA-MB-436
Procedure, shortened: as §2

HCC1143 [9] = system: HCC1143
Procedure, shortened: as §2

BT-549 [10] = system: BT-549
Procedure, shortened: as §2

HDQ-P1 [11] = system: HDQ-P1; remark: listed apart in the source
Procedure, shortened: as §2

HCC1599 = system: HCC1599
Procedure, shortened: as §2

Hs578T = system: Hs578T
Procedure, shortened: as §2

CAL-120 = system: CAL-120
Procedure, shortened: as §2

MFM-223 = system: MFM-223
Procedure, shortened: as §2

MDA-MB-468 [12] = system: MDA-MB-468
Procedure, shortened: as §2

MDA-MB-453 [13] = system: MDA-MB-453; remark: listed apart in the source
Procedure, shortened: as §2

DU-4475 [14] = system: DU-4475; remark: listed apart in the source
Procedure, shortened: as §2

MDA-MB-231 = system: MDA-MB-231
Procedure, shortened: as §2

HCC1937 [15] = system: HCC1937
Procedure, shortened: as §2

CAL-85-1 [16] = system: CAL-85-1; remark: listed apart in the source
Procedure, shortened: as §2

BT-474 [17] = system: BT-474
Procedure, shortened: as §2

SK-BR-3 [18] = system: SK-BR-3; remark: listed apart in the source
Procedure, shortened: as §2

HCC1143 [19] = system: HCC1143; remark: listed apart in the source
Procedure, shortened: as §2

BT-549 [20] = system: BT-549; remark: listed apart in the source
Procedure, shortened: as §2

HDQ-P1 [21] = system: HDQ-P1; remark: listed apart in the source
Procedure, shortened: as §2

MDA-MB-468 [22] = system: MDA-MB-468; remark: listed apart in the source
Procedure, shortened: as §2

DU-4475 [23] = system: DU-4475; remark: listed apart in the source
Procedure, shortened: as §2

HCC1937 [24] = system: HCC1937; remark: listed apart in the source
Procedure, shortened: as §2

CAL-85-1 [25] = system: CAL-85-1; remark: listed apart in the source
Procedure, shortened: as §2

BT-474 [26] = system: BT-474; remark: listed apart in the source
Procedure, shortened: as §2

CAL-148 [27] = system: CAL-148; remark: listed apart in the source
Procedure, shortened: as §2

**Q.** Which results are given for `CN1CCN(CCOc2cc(OC3CCOCC3)c3c(Nc4c(Cl)ccc5c4OCO5)ncnc3c2)CC1` [Saracatinib]?
**A.** normalised viability (CAL-51 [1]; 300 nM): 85.7%; normalised viability (HDQ-P1 [2]; 300 nM): 85.4%; normalised viability (MDA-MB-453 [3]; 300 nM): 104%; normalised viability (DU-4475 [4]; 300 nM): 96.8%; normalised viability (CAL-85-1 [5]; 300 nM): 88.6%; normalised viability (CAL-148 [6]; 300 nM): 92.4%; normalised viability (SK-BR-3 [7]; 1000 nM): 90%; normalised viability (CAL-51 [8]; 30 nM): 103%; normalised viability (MDA-MB-436; 1000 nM): 117%; normalised viability (HCC1143 [9]; 1000 nM): 70.6%; normalised viability (BT-549 [10]; 1000 nM): 85.9%; normalised viability (HDQ-P1 [11]; 30 nM): 107%; normalised viability (HCC1599; 1000 nM): 98%; normalised viability (Hs578T; 1000 nM): 93.8%; normalised viability (CAL-120; 1000 nM): 71.9%; normalised viability (MFM-223; 1000 nM): 102%; normalised viability (MDA-MB-468 [12]; 1000 nM): 87.2%; normalised viability (MDA-MB-453 [13]; 30 nM): 101%; normalised viability (DU-4475 [14]; 30 nM): 96.3%; normalised viability (MDA-MB-231; 1000 nM): 61.6%; normalised viability (HCC1937 [15]; 1000 nM): 85%; normalised viability (CAL-85-1 [16]; 30 nM): 82.6%; normalised viability (BT-474 [17]; 1000 nM): 85.2%; normalised viability (SK-BR-3 [18]; 100 nM): 85.3%; normalised viability (HCC1143 [19]; 100 nM): 84.3%; normalised viability (BT-549 [20]; 100 nM): 112%; normalised viability (HDQ-P1 [21]; 10 nM): 104%; normalised viability (MDA-MB-468 [22]; 100 nM): 104%; normalised viability (DU-4475 [23]; 10 nM): 105%; normalised viability (HCC1937 [24]; 100 nM): 96.2%; normalised viability (CAL-85-1 [25]; 10 nM): 93.9%; normalised viability (BT-474 [26]; 100 nM): 105%; normalised viability (CAL-148 [27]; 10 nM): 80.7%

**Q.** With `CN(C)C[C@@H]1CCn2cc(c3ccccc32)C2=C(C(=O)NC2=O)c2cn(c3ccccc23)CCO1` [Ruboxistaurin] as the molecule, how does the normalised viability (CAL-51 [1]; 300 nM) read?
**A.** The normalised viability was 91%.

**Q.** And the normalised viability (HDQ-P1 [2]; 300 nM)?
**A.** Its normalised viability is 48.4%.

**Q.** What about the normalised viability (MDA-MB-453 [3]; 300 nM) of the same molecule?
**A.** The normalised viability was 104%.

**Q.** And the normalised viability (DU-4475 [4]; 300 nM)?
**A.** Its normalised viability is 82.2%.

**Q.** What about the normalised viability (CAL-85-1 [5]; 300 nM) of the same molecule?
**A.** Its normalised viability is 106%.

**Q.** What about the normalised viability (CAL-148 [6]; 300 nM) of the same molecule?
**A.** The normalised viability was 99%.

**Q.** What about the normalised viability (SK-BR-3 [7]; 1000 nM) of the same molecule?
**A.** The normalised viability was 86.6%.

**Q.** And the normalised viability (CAL-51 [8]; 30 nM)?
**A.** Its normalised viability is 101%.

**Q.** And the normalised viability (MDA-MB-436; 1000 nM)?
**A.** Its normalised viability is 49.2%.

**Q.** What about the normalised viability (HCC1143 [9]; 1000 nM) of the same molecule?
**A.** The normalised viability was 109%.

**Q.** What about the normalised viability (BT-549 [10]; 1000 nM) of the same molecule?
**A.** Its normalised viability is 87.6%.

**Q.** And the normalised viability (HDQ-P1 [11]; 30 nM)?
**A.** The normalised viability was 84.3%.

**Q.** What about the normalised viability (HCC1599; 1000 nM) of the same molecule?
**A.** Its normalised viability is 91.3%.

**Q.** What about the normalised viability (Hs578T; 1000 nM) of the same molecule?
**A.** The normalised viability was 99.8%.

**Q.** And the normalised viability (CAL-120; 1000 nM)?
**A.** The normalised viability was 110%.

**Q.** And the normalised viability (MFM-223; 1000 nM)?
**A.** The normalised viability was 80.8%.

**Q.** What about the normalised viability (MDA-MB-468 [12]; 1000 nM) of the same molecule?
**A.** The normalised viability was 85.2%.

**Q.** What about the normalised viability (MDA-MB-453 [13]; 30 nM) of the same molecule?
**A.** Its normalised viability is 99.9%.

**Q.** What about the normalised viability (DU-4475 [14]; 30 nM) of the same molecule?
**A.** Its normalised viability is 92.3%.

**Q.** What about the normalised viability (MDA-MB-231; 1000 nM) of the same molecule?
**A.** Its normalised viability is 88.2%.

**Q.** What about the normalised viability (HCC1937 [15]; 1000 nM) of the same molecule?
**A.** Its normalised viability is 74%.

**Q.** And the normalised viability (CAL-85-1 [16]; 30 nM)?
**A.** Its normalised viability is 105%.

**Q.** And the normalised viability (BT-474 [17]; 1000 nM)?
**A.** The normalised viability was 93.1%.

**Q.** What about the normalised viability (SK-BR-3 [18]; 100 nM) of the same molecule?
**A.** The normalised viability was 82.2%.

**Q.** And the normalised viability (HCC1143 [19]; 100 nM)?
**A.** The normalised viability was 128%.

**Q.** What about the normalised viability (BT-549 [20]; 100 nM) of the same molecule?
**A.** The normalised viability was 89%.

**Q.** What about the normalised viability (HDQ-P1 [21]; 10 nM) of the same molecule?
**A.** The normalised viability was 82.6%.

**Q.** What about the normalised viability (MDA-MB-468 [22]; 100 nM) of the same molecule?
**A.** The normalised viability was 90.1%.

**Q.** What about the normalised viability (DU-4475 [23]; 10 nM) of the same molecule?
**A.** Its normalised viability is 101%.

**Q.** What about the normalised viability (HCC1937 [24]; 100 nM) of the same molecule?
**A.** The normalised viability was 85.3%.

**Q.** And the normalised viability (CAL-85-1 [25]; 10 nM)?
**A.** The normalised viability was 117%.

**Q.** And the normalised viability (BT-474 [26]; 100 nM)?
**A.** Its normalised viability is 98.7%.

**Q.** And the normalised viability (CAL-148 [27]; 10 nM)?
**A.** Its normalised viability is 112%.

**Q.** What does the source list for `C/C(=C\c1csc(C)n1)[C@@H]1C[C@@H]2O[C@]2(C)CCC[C@H](C)[C@H](O)[C@@H](C)C(=O)C(C)(C)[C@@H](O)CC(=O)O1` [Patupilone]?
**A.** normalised viability (CAL-51 [1]; 30 nM): 28.8%; normalised viability (HDQ-P1 [2]; 30 nM): 48.4%; normalised viability (MDA-MB-453 [3]; 30 nM): 24.8%; normalised viability (DU-4475 [4]; 30 nM): 18.5%; normalised viability (CAL-85-1 [5]; 30 nM): 27.2%; normalised viability (CAL-148 [6]; 30 nM): 19.6%; normalised viability (SK-BR-3 [7]; 100 nM): 15.8%; normalised viability (CAL-51 [8]; 3 nM): 103%; normalised viability (MDA-MB-436; 100 nM): 39.5%; normalised viability (HCC1143 [9]; 100 nM): 34.3%; normalised viability (BT-549 [10]; 100 nM): 27.2%; normalised viability (HDQ-P1 [11]; 3 nM): 107%; normalised viability (HCC1599; 100 nM): 92.2%; normalised viability (Hs578T; 100 nM): 14.1%; normalised viability (CAL-120; 100 nM): 23.2%; normalised viability (MFM-223; 100 nM): 45.9%; normalised viability (MDA-MB-468 [12]; 100 nM): 49.5%; normalised viability (MDA-MB-453 [13]; 3 nM): 63.5%; normalised viability (DU-4475 [14]; 3 nM): 89.2%; normalised viability (MDA-MB-231; 100 nM): 20.1%; normalised viability (HCC1937 [15]; 100 nM): 10.9%; normalised viability (CAL-85-1 [16]; 3 nM): 49.4%; normalised viability (BT-474 [17]; 100 nM): 24.8%; normalised viability (SK-BR-3 [18]; 10 nM): 28.4%; normalised viability (HCC1143 [19]; 10 nM): 66%; normalised viability (BT-549 [20]; 10 nM): 29.4%; normalised viability (HDQ-P1 [21]; 1 nM): 125%; normalised viability (MDA-MB-468 [22]; 10 nM): 54.4%; normalised viability (DU-4475 [23]; 1 nM): 95.4%; normalised viability (HCC1937 [24]; 10 nM): 25.5%; normalised viability (CAL-85-1 [25]; 1 nM): 73.7%; normalised viability (BT-474 [26]; 10 nM): 66.4%; normalised viability (CAL-148 [27]; 1 nM): 93.1%
